In article PMC9934367, “Functional impact of subunit composition and compensation on Drosophila melanogaster nicotinic receptors–targets of neonicotinoids” (PLOS Genetics, 2023):

Test system: D. melanogaster nAChRs
Assay: Comparison of agonist activity between nAChRs expressed in X. laevis oocytes (one-way ANOVA, Kruskal-Wallis)
Type: cell-based
Procedure, shortened: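 D. melanogaster nAChR subunits and co-factors expressed in X. laevis oocytes by cRNA injection, recorded after 3–4 days by two-electrode voltage clamp at −100 mV in saline with 0.5 μM atropine. Peak currents fitted to a Hill equation for EC50; pEC50 differences tested by one-way ANOVA or Kruskal-Wallis.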

[1] = Dα1/Dβ1/Dβ2 vs. Dα1/Dα3/Dβ1/Dβ2
[2] = Dα1/Dβ1/Dβ2 vs. Dα2/Dα3/Dβ1/Dβ2
[3] = Dα1/Dβ1 vs. Dα1/Dα2/Dα3/Dβ1/Dβ2
[4] = Dα2/Dα3/Dβ1/Dβ2 vs. Dα1/Dα2/Dα3/Dβ1/Dβ2
[5] = Dα2/Dα3/Dβ1 vs. Dα1/Dα2/Dα3/Dβ1
[6] = Dα2/Dα3/Dβ1 vs. Dα1/Dα2/Dα3/Dβ1/Dβ2
[7] = Dα2/Dα3/Dβ1 vs. Dα1/Dα2/Dβ1/Dβ2
[8] = Dα2/Dα3/Dβ1 vs. Dα1/Dα3/Dβ1/Dβ2
[9] = Dα2/Dα3/Dβ1 vs. Dα2/Dα3/Dβ1/Dβ2
[10] = Dα3/Dβ1/Dβ2 vs. Dα1/Dα2/Dα3/Dβ1/Dβ2
[11] = Dα3/Dβ1/Dβ2 vs. Dα1/Dα2/Dβ1/Dβ2
[12] = Dα3/Dβ1/Dβ2 vs. Dα1/Dα3/Dβ1/Dβ2
[13] = Dα3/Dβ1/Dβ2 vs. Dα2/Dα3/Dβ1/Dβ2
[14] = Dα3/Dβ1 vs. Dα1/Dα2/Dα3/Dβ1/Dβ2

CN/C(=N\[N+](=O)[O-])NCc1cnc(Cl)s1 [Clothianidin, clothianidin]
Difference of Imax values, nAChRs compared [1]: -0.324
Difference of pEC50 values, nAChRs compared [1]: -0.76
Difference of Imax values, nAChRs compared [2]: -0.274
Difference of pEC50 values, nAChRs compared [2]: -0.65
Difference of Imax values, nAChRs compared (Dα1/Dβ1/Dβ2 vs. Dα3/Dβ1/Dβ2): -0.132
Difference of pEC50 values, nAChRs compared (Dα1/Dβ1/Dβ2 vs. Dα3/Dβ1/Dβ2): -0.82
Difference of Imax values, nAChRs compared (Dα1/Dβ1 vs. Dα1/Dα2/Dα3/Dβ1): -0.309
Difference of pEC50 values, nAChRs compared (Dα1/Dβ1 vs. Dα1/Dα2/Dα3/Dβ1): 0.58
Difference of Imax values, nAChRs compared [3]: -0.304
Difference of pEC50 values, nAChRs compared [3]: 0.54
Difference of Imax values, nAChRs compared (Dα1/Dβ1 vs. Dα1/Dα2/Dβ1): -0.191
Difference of pEC50 values, nAChRs compared (Dα1/Dβ1 vs. Dα1/Dα2/Dβ1): 2.06
Difference of Imax values, nAChRs compared (Dα1/Dβ1 vs. Dα1/Dα2/Dβ1/Dβ2): -0.292
Difference of pEC50 values, nAChRs compared (Dα1/Dβ1 vs. Dα1/Dα2/Dβ1/Dβ2): 0.82
Difference of Imax values, nAChRs compared (Dα1/Dβ1 vs. Dα1/Dα3/Dβ1): -0.119
Difference of pEC50 values, nAChRs compared (Dα1/Dβ1 vs. Dα1/Dα3/Dβ1): -0.07
Difference of Imax values, nAChRs compared (Dα1/Dβ1 vs. Dα1/Dα3/Dβ1/Dβ2): -0.176
Difference of pEC50 values, nAChRs compared (Dα1/Dβ1 vs. Dα1/Dα3/Dβ1/Dβ2): -0.27
Difference of Imax values, nAChRs compared (Dα1/Dβ1 vs. Dα1/Dβ1/Dβ2): 0.148
Difference of pEC50 values, nAChRs compared (Dα1/Dβ1 vs. Dα1/Dβ1/Dβ2): 0.49
Difference of Imax values, nAChRs compared (Dα1/Dβ1 vs. Dα2/Dα3/Dβ1): -0.374
Difference of pEC50 values, nAChRs compared (Dα1/Dβ1 vs. Dα2/Dα3/Dβ1): 0.32
Difference of Imax values, nAChRs compared (Dα1/Dβ1 vs. Dα2/Dα3/Dβ1/Dβ2): -0.126
Difference of pEC50 values, nAChRs compared (Dα1/Dβ1 vs. Dα2/Dα3/Dβ1/Dβ2): -0.16
Difference of Imax values, nAChRs compared (Dα1/Dβ1 vs. Dα3/Dβ1): -0.183
Difference of pEC50 values, nAChRs compared (Dα1/Dβ1 vs. Dα3/Dβ1): -0.41
Difference of Imax values, nAChRs compared (Dα1/Dβ1 vs. Dα3/Dβ1/Dβ2): 0.016
Difference of pEC50 values, nAChRs compared (Dα1/Dβ1 vs. Dα3/Dβ1/Dβ2): -0.33
Difference of Imax values, nAChRs compared [4]: -0.178
Difference of pEC50 values, nAChRs compared [4]: 0.70
Difference of Imax values, nAChRs compared [5]: 0.065
Difference of pEC50 values, nAChRs compared [5]: 0.26
Difference of Imax values, nAChRs compared [6]: 0.070
Difference of pEC50 values, nAChRs compared [6]: 0.22
Difference of Imax values, nAChRs compared [7]: 0.082
Difference of pEC50 values, nAChRs compared [7]: 0.50
Difference of Imax values, nAChRs compared [8]: 0.198
Difference of pEC50 values, nAChRs compared [8]: -0.59
Difference of Imax values, nAChRs compared (Dα2/Dα3/Dβ1 vs. Dα1/Dβ1/Dβ2): 0.522
Difference of pEC50 values, nAChRs compared (Dα2/Dα3/Dβ1 vs. Dα1/Dβ1/Dβ2): 0.17
Difference of Imax values, nAChRs compared [9]: 0.248
Difference of pEC50 values, nAChRs compared [9]: -0.48
Difference of Imax values, nAChRs compared (Dα2/Dα3/Dβ1 vs. Dα3/Dβ1/Dβ2): 0.390
Difference of pEC50 values, nAChRs compared (Dα2/Dα3/Dβ1 vs. Dα3/Dβ1/Dβ2): -0.65
Difference of Imax values, nAChRs compared [10]: -0.320
Difference of pEC50 values, nAChRs compared [10]: 0.87
Difference of Imax values, nAChRs compared [11]: -0.308
Difference of pEC50 values, nAChRs compared [11]: 1.15
Difference of Imax values, nAChRs compared [12]: -0.192
Difference of pEC50 values, nAChRs compared [12]: 0.06
Difference of Imax values, nAChRs compared [13]: -0.142
Difference of pEC50 values, nAChRs compared [13]: 0.17
Difference of Imax values, nAChRs compared (Dα3/Dβ1 vs. Dα1/Dα2/Dα3/Dβ1): -0.126
Difference of pEC50 values, nAChRs compared (Dα3/Dβ1 vs. Dα1/Dα2/Dα3/Dβ1): 0.99
Difference of Imax values, nAChRs compared [14]: -0.121
Difference of pEC50 values, nAChRs compared [14]: 0.95
Difference of Imax values, nAChRs compared (Dα3/Dβ1 vs. Dα1/Dα2/Dβ1): -0.008
Difference of pEC50 values, nAChRs compared (Dα3/Dβ1 vs. Dα1/Dα2/Dβ1): 2.47
Difference of Imax values, nAChRs compared (Dα3/Dβ1 vs. Dα1/Dα2/Dβ1/Dβ2): -0.109
Difference of pEC50 values, nAChRs compared (Dα3/Dβ1 vs. Dα1/Dα2/Dβ1/Dβ2): 1.23
Difference of Imax values, nAChRs compared (Dα3/Dβ1 vs. Dα1/Dα3/Dβ1): 0.064
Difference of pEC50 values, nAChRs compared (Dα3/Dβ1 vs. Dα1/Dα3/Dβ1): 0.34
Difference of Imax values, nAChRs compared (Dα3/Dβ1 vs. Dα1/Dα3/Dβ1/Dβ2): 0.007
Difference of pEC50 values, nAChRs compared (Dα3/Dβ1 vs. Dα1/Dα3/Dβ1/Dβ2): 0.14
Difference of Imax values, nAChRs compared (Dα3/Dβ1 vs. Dα1/Dβ1/Dβ2): 0.331
Difference of pEC50 values, nAChRs compared (Dα3/Dβ1 vs. Dα1/Dβ1/Dβ2): 0.90
Difference of Imax values, nAChRs compared (Dα3/Dβ1 vs. Dα2/Dα3/Dβ1): -0.191
Difference of pEC50 values, nAChRs compared (Dα3/Dβ1 vs. Dα2/Dα3/Dβ1): 0.73
Difference of Imax values, nAChRs compared (Dα3/Dβ1 vs. Dα2/Dα3/Dβ1/Dβ2): 0.057
Difference of pEC50 values, nAChRs compared (Dα3/Dβ1 vs. Dα2/Dα3/Dβ1/Dβ2): 0.25
Difference of Imax values, nAChRs compared (Dα3/Dβ1 vs. Dα3/Dβ1/Dβ2): 0.199
Difference of pEC50 values, nAChRs compared (Dα3/Dβ1 vs. Dα3/Dβ1/Dβ2): 0.08
